Assay results reported in PMC12385147, “Discovery of Novel 2-Substituted Aniline Pyrimidine Based Derivatives as Potent Mer/c-Met Dual Inhibitors with Improvement Bioavailability” (Biomolecules, 2025).
Where two headings read alike, the source gives them in different places.

Key:
PC-3 prostate cancer = assay: Antiproliferation CCK-8 assay, PC-3; format: cell-based
hERG potassium channel = hERG potassium channel (Homo sapiens, UniProt Q12809); assay: hERG potassium channel QPatch automated patch clamp in CHO cells
[1] = Pharmacokinetics in SD rats; format: in vivo; settings: rat; for MRT inf: read-out: MRTINF_obs
Description: Male and female SD rats (SLRC Laboratory Animal Inc., Shanghai, China) were used for the study. In the oral (PO) administration, 3 rats per group were given a single 10 mg/kg dose. Blood samples (100 μL per time point) were collected via jugular vein cannula and taken at 5, 15, and 30 min, and 1, 2, 4, 8, and 24 h post-dose. For the intravenous (IV) administration, 3 rats per group received 2.0 mg/kg, and blood samples were collected at 5, 15, and 30 min, and 1, 2, and 4 h after dosing. Rats were fasted overnight prior to dosing and remained fasted for 6 h post-dose. Plasma was separated by centrifugation and stored at –40 °C until analysis. Compound concentrations were determined by LC/MS/MS (Shimadzu LC-30AD), and pharmacokinetic parameters, including Cmax, Tmax, T1/2, and AUC0-inf, were calculated.

HCT116 = assay: Antiproliferation CCK-8 assay, HCT116; format: cell-based; settings: for IC50: Homo sapiens, HCT-116
Description: (§1) The HepG2, MDA-MB-231, and HCT116 cell lines were derived from our own laboratory (the laboratory of our collaborator, Dr. Xiaolei Zhou, at College of Food Science and Biology in Hebei University of Science and Technology). The antiproliferative activities were assessed using the CCK-8 assay. Cell viability was measured according to the manufacturer’s instructions for the Cell Counting Kit-8 (Meilunbio, Dalian, China). In this assay, 2.5 × 10^3 cells per well were seeded into 96-well plates.
(§2) After an initial 12 h incubation, cancer cells were exposed to varying concentrations of compound 17c for 72 h. Following CCK-8 solution addition and 2 h incubation, the absorbance at 450 nm was measured using a BioTek Synergy HTX microplate reader. Experiments included triplicate wells with three independent replicates. The IC50 values for compound 17c were derived from an analysis of the dose–response curves in GraphPad PRISM 9.5.

[2] = tested on: Mer kinase phosphorylation; assay: Western blot, Mer phosphorylation in HCT116 cells; format: cell-based, human; settings: 2.5 μM, 24 h, compared to the positive control
Description: (§3) Western blot assay was performed according to established protocols. HCT colon cancer cells were exposed to the specified concentration of compound 17c for 24 h, after which whole cell lysates were prepared using RAPI cell lysis buffer (Beyotime Institute of Biotechnology, Shanghai, China). Primary antibodies, purchased from Beyotime Institute of Biotechnology, were diluted at a ratio of 1:2000. The protein bands on polyvinylidene fluoride membranes were visualized and analyzed using Glyco Band-Scan Software Version 4.50. The antibody details are as follows:
Name: Phospho-MER/TYRO3 (Tyr753/Tyr685) antibody, Species: Rabit, Sequence: synthesized peptide derived from human MER/TYRO3 around the Phosphorylation site of Tyr753/Tyr685, Dilution: 1:2000, RRID number: AB_2840500, Catalogue number: AF8443, Supplier: Affinity Biosciences (Beijing, China).

CAKI-1 renal cancer = assay: Antiproliferation CCK-8 assay, CAKI-1; format: cell-based
[3] = Plasma protein binding, equilibrium dialysis, rat plasma; format: in vitro ADME
[4] = Liver microsome stability assay; format: in vitro ADME, human
[5] = tested on: c-Met kinase phosphorylation; assay: Western blot, c-Met phosphorylation in HCT116 cells; format: cell-based, human; settings: 2.5 μM, 24 h, compared to the positive control
Description: as §3
Name: Phospho-c-Met (Tyr1234) antibody, Species: Rabit, Sequence: synthesized peptide derived from human c-Met around the Phosphorylation site of Tyr1234, Dilution: 1:2000, RRID number: AB_2834564, Catalogue number: AF3129, Supplier: Affinity Biosciences (Beijing, China).

HepG2 = assay: Antiproliferation CCK-8 assay, HepG2; format: cell-based; settings: Homo sapiens, CCK-8, 72 h
Description: as §1, §2

[6] = Plasma protein binding, equilibrium dialysis, human plasma; format: in vitro ADME; settings: for fraction unbound at 6 h, 1 μM: human, plasma
[7] = both sexes, plasma, iv, SD rats, 2 mg/kg
[8] = both sexes, plasma, po, SD rats, 10 mg/kg

Sequence of hERG potassium channel (Q12809 whole entry): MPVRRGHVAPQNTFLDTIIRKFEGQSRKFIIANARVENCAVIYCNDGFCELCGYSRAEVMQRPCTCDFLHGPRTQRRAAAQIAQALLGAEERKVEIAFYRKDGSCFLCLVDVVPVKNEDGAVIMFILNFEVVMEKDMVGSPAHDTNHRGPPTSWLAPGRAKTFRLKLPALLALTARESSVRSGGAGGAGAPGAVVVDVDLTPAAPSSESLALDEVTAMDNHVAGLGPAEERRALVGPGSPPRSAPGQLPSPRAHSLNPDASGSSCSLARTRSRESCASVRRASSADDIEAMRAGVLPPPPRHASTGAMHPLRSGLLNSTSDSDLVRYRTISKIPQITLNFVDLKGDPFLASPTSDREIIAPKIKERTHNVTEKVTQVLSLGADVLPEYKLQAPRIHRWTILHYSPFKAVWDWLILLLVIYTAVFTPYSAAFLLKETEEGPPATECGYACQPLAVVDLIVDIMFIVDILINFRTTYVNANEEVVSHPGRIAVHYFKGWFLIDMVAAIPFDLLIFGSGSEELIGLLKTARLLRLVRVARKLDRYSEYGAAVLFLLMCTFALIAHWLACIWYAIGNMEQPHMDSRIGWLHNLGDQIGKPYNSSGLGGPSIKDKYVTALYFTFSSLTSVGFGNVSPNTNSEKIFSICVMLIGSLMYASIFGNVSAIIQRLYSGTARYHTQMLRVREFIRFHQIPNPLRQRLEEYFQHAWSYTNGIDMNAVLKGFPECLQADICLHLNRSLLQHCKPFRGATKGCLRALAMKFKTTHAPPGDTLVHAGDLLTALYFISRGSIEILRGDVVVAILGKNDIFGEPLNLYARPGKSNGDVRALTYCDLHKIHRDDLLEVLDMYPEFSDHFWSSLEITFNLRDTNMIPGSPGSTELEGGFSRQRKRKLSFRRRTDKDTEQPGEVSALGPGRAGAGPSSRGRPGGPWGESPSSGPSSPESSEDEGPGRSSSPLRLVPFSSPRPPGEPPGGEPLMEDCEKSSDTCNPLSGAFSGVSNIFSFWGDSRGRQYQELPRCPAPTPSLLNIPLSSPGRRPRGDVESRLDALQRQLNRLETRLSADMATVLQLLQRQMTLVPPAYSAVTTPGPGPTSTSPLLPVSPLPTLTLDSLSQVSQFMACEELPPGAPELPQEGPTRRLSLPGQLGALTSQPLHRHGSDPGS

IC50 (PC-3 prostate cancer; Homo sapiens, PC-3, CCK-8, read-out: IC50 PC-3 cells): 3790 ± 1090 nM | AUC(0-t) [1, 7]: 2150 ng·h/mL | half-life [1, 7]: 3.33 h | clearance ([1]; both sexes, plasma, iv, SD rats, i.v., 2 mg/kg, read-out: CL_obs): 16.4 mL/min/kg | MRT inf ([1]; both sexes, plasma, iv, SD rats, i.v., 2 mg/kg): 3.23 h | bioavailability ([1]; both sexes, plasma, oral, SD rats, p.o. 10 mg/kg vs i.v. 2 mg/kg, read-out: F (oral bioavailability)): 45.3% | AUC(0-t) [1, 8]: 4630 ng·h/mL | Cmax [1, 8]: 740 ng/mL | Tmax [1, 8]: 4 h | half-life [1, 8]: 3.46 h | MRT inf ([1]; both sexes, plasma, po, SD rats, p.o., 10 mg/kg): 6.52 h | oral bioavailability, fold higher than 18c ([1]; in vivo, po): 16 fold | IC50 (HCT116; CCK-8, 72 h, read-out: IC50 HCT116): 3790 ± 1090 nM | IC50 (HCT116; CCK-8, read-out: IC50 HCT116 cells): 460 ± 60 nM | IC50 (CAKI-1 renal cancer; Homo sapiens, CAKI-1, CCK-8, read-out: IC50 CAKI-1 cells): 2310 ± 670 nM | Mean Fb ([3]; 1 μM): 98.2% | Stability (%) ([3]; 1 μM, 6 h at 37 °C): 102.2% | fraction unbound at 6 h, 1 μM ([3]; fraction, read-out: Mean Fu): 0.0178 | CL (intrinsic clearance) ([4]; human liver microsomes): 23.6 µL/min/mg | microsomal CLint ([4]; human, liver microsomes, pH 7.4, human liver microsomes, read-out: CL (intrinsic clearance)): 26 µL/min/mg | IC50 (HepG2): 460 ± 60 nM | Stability (%) ([6]; human plasma, 1 μM, 6 h at 37 °C): 99.3% | fraction unbound at 6 h, 1 μM ([6]; human plasma, 1 μM, fraction, read-out: Mean Fu): 0.0158 | fraction unbound at 6 h, 1 μM ([6]; human plasma, 1 μM, read-out: Mean Fb (PPB) (converted)): 0.016 | plasma protein-binding affinity ([6]; species not stated (abstract)): > 95%
Structure (SMILES): Cc1c(C(=O)Nc2ccc(Oc3ccnc(Nc4cccc(OC5CCN(C)CC5)c4)n3)cc2)c(=O)n(-c2ccccc2)n1C [compound 17c, 1,5-dimethyl-N-(4-((2-((3-((1-methylpiperidin-4-yl)oxy)phenyl)amino)pyrimidin-4-yl)oxy)phenyl)-3-oxo-2-phenyl-2,3-dihydro-1H-pyrazole-4-carboxamide]
times more effective than cabozantinib (PC-3 prostate cancer; PC-3 cells): 4.1 times | IC50 (hERG potassium channel): > 40000 nM | fold improvement over cabozantinib (HCT116; HCT116 cells): 17.1 fold | inhibition of Mer kinase phosphorylation [2]: significantly inhibited the phosphorylation | fold enhancement compared to cabozantinib (CAKI-1 renal cancer; CAKI-1 cells): 2.0 fold | inhibition of c-Met kinase phosphorylation [5]: significantly inhibited the phosphorylation
